Counter-ions that a name gives are not always drawn. Like-named read-outs stand apart in the source and are kept apart here.
Assays:
EGFR (L858R/T790M/C797S) = target: T1, EGFR (L858R/T790M/C797S) (Homo sapiens, UniProt P00533, C797S/L858R/T790M); experiment: Kinase inhibitory activity, 33P-ATP filtration-binding (Reaction Biology Corp.); format: biochemical; conditions: read-out: Kinase half-maximal inhibition concentration IC50 EGFR(L858R/T790M/C797S)
T1 construct: Reaction Biology Corp. (assay performed there)
Description: Compound assay for kinase inhibitory activity against EGFR (L858R/T790M/C797S), EGFR (del19-E746-A750/T790M/C797S), and EGFR (WT) was done at Reaction Biology Corp. In reaction buffer (20 mM Hepes (pH 7.5), 10 mM magnesium chloride (MgCl2), 1 mM ethylenebis(oxyethylenenitrilo)tetraacetic acid (EGTA), 0.02% polyethylene glycol monododecyl ether (Brij35), 0.02 mg/ml BSA, 0.1 mM sodium vanadate (Na3VO4), 2 mM dithiothreitol (DTT), 1% DMSO), a certain concentration of substances, coenzyme factors, kinases and test compounds (10 doses, 3-fold serial dilutions, 2% DMSO final concentration) were added in sequence, and mixed well. The mixture was incubated at room temperature for 20 minutes. A certain concentration of ^33P-ATP was added to the reaction mixture to initiate reaction, followed by incubation at room temperature for 120 minutes. Finally, the radioactivity of the reactants was detected by filtration-binding method. The final kinase activity was expressed as the ratio of the remaining kinase activity of the test sample to the kinase activity of the DMSO control group. The dose-response relationship curve was fitted and IC50 was calculated using GraphPad software.

[1] = target: Ba/F3-FL-EGFR (L858R/T790M/C797S) (Homo sapiens, UniProt P00533, T790M/C797S/L858R, cells depend on it); experiment: Cell proliferation inhibition, CellTiter-Glo; format: cell-based; conditions: 72 hours, read-out: Cell half-maximal inhibition concentration IC50 Ba/F3-FL-EGFR (L858R/T790M/C797S)
Description: (§1) AdenosineTri-Phosphate (ATP) is an energy carrier shared by various life activities in nature, and is the smallest unit of energy storage and transfer. The CellTiter-Glo™ living cell assay kit uses luciferase as a detector, and luciferase requires the participation of ATP in the process of luminescence. CellTiter-Glo™ reagent is added to a cell culture medium, and the luminescence value is measured. The light signal is directly proportional to the amount of ATP in the system, and ATP is positively correlated with the number of living cells. Therefore, cell proliferation can be detected by detecting ATP content with the CellTiter-Glo kit. In this assay, the cell lines were Ba/F3-FL-EGFR (L858R/T790M/C797S), Ba/F3-FL-EGFR (WT), Ba/F3-FL-EGFR (L858R), Ba/F3-FL-EGFR (del19-S752-I759), Ba/F3-FL-EGFR (del19-E746-A750/T790M/C797S), Ba/F3-FL-EGFR (L858R/T790M), Ba/F3-FL-EGFR (del19-E746-A750/T790M), Ba/F3-TEL-EGFR (L858R/C797S), Ba/F3-FL-EGFR (del19-E746-A750/C797S) stably transfected cell lines.
(§2) The cell lines were cultured in an incubator at 37° C. and 5% CO2. The cells were periodically passaged, and cells in logarithmic growth phase were taken for plating.
(§3) a) DMSO was used to prepare a 10 mM solution of the compound to be tested, and then the compound to be tested was diluted to 0.3 or 1 mM with DMSO.
(§4) b) Preparation of 1000× compound storage plate (tube): DMSO was used to dilute by 3-fold gradient from the highest concentration to the lowest concentration, with a total of 9 concentrations.
(§5) c) Preparation of 20× compound working solution: 49 μL of cell culture medium was added to a flat-bottomed 96-well transparent drug plate, and 1 μL of compound was pipetted from the 1000× compound storage plate to the cell culture medium of the 96-well transparent drug plate. 1 μL of DMSO was added to the vehicle control. After adding compound or DMSO, the well content was mixed to uniform by aspiration and expelling with pipette.
(§6) a) Cells were stained with trypan blue and viable cells were counted. The cell viability rate was required to be above 90%.
(§7) b) 95 μL of cell suspension (2000 cells/well) was added to each well of the compound detection cell plate, and culture medium without cells (containing 0.1% DMSO) was added to the Min control well.
(§8) c) Dosing in the compound detection cell plate: 5 μL of 20× compound working solution was added to the cell culture plate. 5 μL of DMSO-cell culture mixture was added to the Max control. The final concentration of DMSO was 0.1%.
(§9) d) The culture plate was incubated in an incubator at 37° C., 5% CO2 for 72 hours.
(§10) Cell proliferation inhibition rate (Inhibition Rate) data were processed using the following formula:
Inhibition Rate (Inh %)=100−(RLUDrug−RLUMin)/(RLUMax−RLUMin)*100%.
The inhibition rates corresponding to different concentrations of compounds were calculated, and then GraphPad Prism software was used to draw the inhibition rate curve and the IC50 value was calculated.

Ba/F3-FL-EGFR (L858R) = Ba/F3-FL-EGFR (L858R) (Homo sapiens, UniProt P00533, L858R, cells depend on it); experiment: Cell proliferation inhibition, CellTiter-Glo; format: cell-based; conditions: 72 hours, read-out: Cell half-maximal inhibition concentration IC50 Ba/F3-FL-EGFR (L858R)
Description: as §1, §2, §3, §4, §5, §6, §7, §8, §9
(§11) The following steps were performed according to the instruction of Promega CellTiter-Glo luminescence cell viability detection kit (Promega-G7573). • a) The CellTiter-Glo buffer was thawed and allowed to stand to reach room temperature; • b) CellTiter-Glo substrate was allowed to stand to reach room temperature; • c) CellTiter-Glo buffer was added to CellTiter-Glo substrate in a bottle to dissolve the substrate to formulate CellTiter-Glo working solution; • d) The working solution was vortexed slowly for fully dissolution; • e) The cell culture plates were taken out and allowed to stand for 10 minutes to equilibrate to room temperature; • f) 50 μL (equal to half the volume of cell culture solution in each well) of Cell Titer-Glo working solution was added into each well. • g) The culture plates were shaken on an orbital shaker for 2 minutes to induce cell lysis; • h) The culture plates were left at room temperature for 10 minutes to stabilize the luminescence signal; • i) The luminous signal was detected on the PerkinElmer EnVision®2105 plate reader.
(§12) By PerkinElmer EnVision®2105 reading, the corresponding […] value RLU for each well was yielded.
as §10
(§13) Inhibition Rate (Inh %)=100−(RLUDrug−RLUMin)/(RLUMax−RLUMin)*100%. […]

Ba/F3-FL-EGFR (WT) = Ba/F3-FL-EGFR (WT) (Homo sapiens, UniProt P00533); experiment: Cell proliferation inhibition, CellTiter-Glo; format: cell-based; conditions: 72 hours, read-out: Cell half-maximal inhibition concentration IC50 Ba/F3-FL-EGFR (WT)
Description: as §1, §2, §3, §4, §5, §6, §7, §8, §9, §11, §12, §10, §13

[2] = target: Ba/F3-FL-EGFR (del19-E746-A750/T790M/C797S) (Homo sapiens, UniProt P00533, DEL746-750/T790M/C797S, cells depend on it); experiment: Cell proliferation inhibition, CellTiter-Glo; format: cell-based; conditions: 72 hours, read-out: Cell half-maximal inhibition concentration IC50 Ba/F3-FL-EGFR (del19-E746-A750/T790M/C797S)
Description: as §1, §2, §3, §4, §5, §6, §7, §8, §9, §11, §12, §10, §13

[3] = target: Ba/F3-FL-EGFR (del19-S752-I759) (Homo sapiens, UniProt P00533, DEL752-759, cells depend on it); experiment: Cell proliferation inhibition, CellTiter-Glo; format: cell-based; conditions: 72 hours, read-out: Cell half-maximal inhibition concentration IC50 Ba/F3-FL-EGFR (del19-S752-I759)
Description: as §1, §2, §3, §4, §5, §6, §7, §8, §9, §11, §12, §10, §13

[4] = test system: PC-9 (EGFR del19/T790M/C797S); conditions: J. Med. Chem. 2019, 62, 22, 10272-10293; cited from earlier work

T1 sequence (P00533 25-1210 T790M/C797S/L858R): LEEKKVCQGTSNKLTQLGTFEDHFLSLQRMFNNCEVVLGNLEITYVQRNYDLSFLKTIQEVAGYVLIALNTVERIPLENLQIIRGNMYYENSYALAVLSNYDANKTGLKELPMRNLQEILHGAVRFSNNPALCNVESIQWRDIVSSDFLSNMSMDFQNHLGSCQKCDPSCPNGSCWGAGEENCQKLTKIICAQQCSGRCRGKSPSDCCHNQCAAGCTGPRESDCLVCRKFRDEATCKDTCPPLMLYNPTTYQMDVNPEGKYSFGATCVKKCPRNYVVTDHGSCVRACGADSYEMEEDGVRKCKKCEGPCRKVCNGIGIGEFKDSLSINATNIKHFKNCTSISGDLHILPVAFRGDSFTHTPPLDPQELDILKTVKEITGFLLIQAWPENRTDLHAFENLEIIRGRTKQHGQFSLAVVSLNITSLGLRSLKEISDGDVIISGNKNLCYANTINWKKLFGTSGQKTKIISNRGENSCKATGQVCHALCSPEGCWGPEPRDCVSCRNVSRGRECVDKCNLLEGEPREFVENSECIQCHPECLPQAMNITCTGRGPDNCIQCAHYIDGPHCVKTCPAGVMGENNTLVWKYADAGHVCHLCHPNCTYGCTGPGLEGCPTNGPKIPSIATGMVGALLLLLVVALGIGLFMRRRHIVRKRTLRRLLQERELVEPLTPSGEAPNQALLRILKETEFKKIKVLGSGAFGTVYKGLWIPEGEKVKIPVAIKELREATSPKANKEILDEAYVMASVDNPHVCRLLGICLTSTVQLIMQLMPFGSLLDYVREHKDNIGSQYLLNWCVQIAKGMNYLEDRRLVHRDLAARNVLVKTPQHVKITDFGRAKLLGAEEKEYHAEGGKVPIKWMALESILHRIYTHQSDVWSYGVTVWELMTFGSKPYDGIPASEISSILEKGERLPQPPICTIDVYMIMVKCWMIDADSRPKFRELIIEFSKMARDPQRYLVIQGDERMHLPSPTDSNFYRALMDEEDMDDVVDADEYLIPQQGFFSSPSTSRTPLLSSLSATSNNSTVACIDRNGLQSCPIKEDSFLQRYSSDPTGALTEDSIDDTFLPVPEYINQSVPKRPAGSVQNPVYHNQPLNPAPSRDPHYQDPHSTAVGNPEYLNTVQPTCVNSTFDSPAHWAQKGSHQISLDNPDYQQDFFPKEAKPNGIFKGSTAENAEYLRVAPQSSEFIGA
Chain of Ba/F3-FL-EGFR (L858R/T790M/C797S) (P00533 whole entry T790M/C797S/L858R): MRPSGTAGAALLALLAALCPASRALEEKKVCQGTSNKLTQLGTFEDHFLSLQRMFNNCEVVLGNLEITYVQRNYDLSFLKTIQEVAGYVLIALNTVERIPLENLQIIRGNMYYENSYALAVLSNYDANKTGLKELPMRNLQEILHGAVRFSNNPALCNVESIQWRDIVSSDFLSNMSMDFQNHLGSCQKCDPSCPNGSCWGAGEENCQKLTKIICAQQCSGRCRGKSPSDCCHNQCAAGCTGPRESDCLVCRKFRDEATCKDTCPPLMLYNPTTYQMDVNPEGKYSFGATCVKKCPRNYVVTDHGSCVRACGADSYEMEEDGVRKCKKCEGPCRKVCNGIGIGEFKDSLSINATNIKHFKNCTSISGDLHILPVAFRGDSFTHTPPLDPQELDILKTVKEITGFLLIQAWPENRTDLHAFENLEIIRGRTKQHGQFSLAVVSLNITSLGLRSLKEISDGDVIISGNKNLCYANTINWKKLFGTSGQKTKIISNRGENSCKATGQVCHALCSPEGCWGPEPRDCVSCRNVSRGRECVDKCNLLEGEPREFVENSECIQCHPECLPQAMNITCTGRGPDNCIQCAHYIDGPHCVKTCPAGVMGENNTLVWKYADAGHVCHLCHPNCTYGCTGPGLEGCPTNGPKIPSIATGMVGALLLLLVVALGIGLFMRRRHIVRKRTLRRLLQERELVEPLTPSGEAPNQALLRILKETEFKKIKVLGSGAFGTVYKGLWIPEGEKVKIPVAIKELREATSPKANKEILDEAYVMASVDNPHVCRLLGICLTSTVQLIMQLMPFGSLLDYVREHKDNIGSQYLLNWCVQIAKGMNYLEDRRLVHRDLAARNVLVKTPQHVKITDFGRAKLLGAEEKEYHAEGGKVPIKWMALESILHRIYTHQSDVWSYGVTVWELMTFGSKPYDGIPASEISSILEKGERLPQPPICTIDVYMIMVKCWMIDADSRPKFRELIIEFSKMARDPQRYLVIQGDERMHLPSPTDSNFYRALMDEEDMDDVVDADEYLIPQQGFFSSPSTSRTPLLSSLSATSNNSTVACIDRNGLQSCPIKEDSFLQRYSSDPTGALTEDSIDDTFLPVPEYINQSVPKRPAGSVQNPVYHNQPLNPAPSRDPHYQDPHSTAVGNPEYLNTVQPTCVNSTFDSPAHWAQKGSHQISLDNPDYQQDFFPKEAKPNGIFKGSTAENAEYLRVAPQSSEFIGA
Chain of Ba/F3-FL-EGFR (del19-E746-A750/T790M/C797S) (P00533 with tags, fused parts or gaps DEL746-750/T790M/C797S): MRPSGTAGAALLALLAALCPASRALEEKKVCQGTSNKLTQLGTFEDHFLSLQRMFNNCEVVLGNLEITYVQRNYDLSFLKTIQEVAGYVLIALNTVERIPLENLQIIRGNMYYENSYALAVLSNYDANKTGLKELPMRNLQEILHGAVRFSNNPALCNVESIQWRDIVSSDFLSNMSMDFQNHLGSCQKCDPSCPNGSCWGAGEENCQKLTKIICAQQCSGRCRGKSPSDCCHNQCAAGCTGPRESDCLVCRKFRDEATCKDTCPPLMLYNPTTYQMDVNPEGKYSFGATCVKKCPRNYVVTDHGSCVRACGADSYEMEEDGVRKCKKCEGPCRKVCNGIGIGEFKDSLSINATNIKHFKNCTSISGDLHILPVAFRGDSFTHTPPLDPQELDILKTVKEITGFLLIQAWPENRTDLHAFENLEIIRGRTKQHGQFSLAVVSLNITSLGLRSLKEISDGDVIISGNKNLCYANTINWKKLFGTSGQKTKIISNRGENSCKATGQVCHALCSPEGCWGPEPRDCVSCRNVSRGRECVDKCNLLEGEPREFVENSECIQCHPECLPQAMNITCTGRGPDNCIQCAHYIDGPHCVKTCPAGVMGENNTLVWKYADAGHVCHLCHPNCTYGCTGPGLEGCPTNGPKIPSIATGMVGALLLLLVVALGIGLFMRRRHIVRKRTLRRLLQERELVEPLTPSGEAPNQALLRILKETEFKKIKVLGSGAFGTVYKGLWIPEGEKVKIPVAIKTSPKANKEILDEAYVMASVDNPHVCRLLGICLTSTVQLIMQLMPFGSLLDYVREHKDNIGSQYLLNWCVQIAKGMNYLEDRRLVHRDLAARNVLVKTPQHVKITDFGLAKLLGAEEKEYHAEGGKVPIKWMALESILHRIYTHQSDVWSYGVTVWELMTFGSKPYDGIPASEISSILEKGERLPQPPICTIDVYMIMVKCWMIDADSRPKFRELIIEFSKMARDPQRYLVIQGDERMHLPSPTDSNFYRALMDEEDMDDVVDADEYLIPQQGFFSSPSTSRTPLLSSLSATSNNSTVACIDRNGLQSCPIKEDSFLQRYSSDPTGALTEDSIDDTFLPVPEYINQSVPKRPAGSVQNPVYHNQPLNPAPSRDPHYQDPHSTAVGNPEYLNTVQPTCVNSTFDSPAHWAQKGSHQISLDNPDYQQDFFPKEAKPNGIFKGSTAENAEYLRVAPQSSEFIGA
Chain of Ba/F3-FL-EGFR (WT) (P00533 whole entry, change not shown): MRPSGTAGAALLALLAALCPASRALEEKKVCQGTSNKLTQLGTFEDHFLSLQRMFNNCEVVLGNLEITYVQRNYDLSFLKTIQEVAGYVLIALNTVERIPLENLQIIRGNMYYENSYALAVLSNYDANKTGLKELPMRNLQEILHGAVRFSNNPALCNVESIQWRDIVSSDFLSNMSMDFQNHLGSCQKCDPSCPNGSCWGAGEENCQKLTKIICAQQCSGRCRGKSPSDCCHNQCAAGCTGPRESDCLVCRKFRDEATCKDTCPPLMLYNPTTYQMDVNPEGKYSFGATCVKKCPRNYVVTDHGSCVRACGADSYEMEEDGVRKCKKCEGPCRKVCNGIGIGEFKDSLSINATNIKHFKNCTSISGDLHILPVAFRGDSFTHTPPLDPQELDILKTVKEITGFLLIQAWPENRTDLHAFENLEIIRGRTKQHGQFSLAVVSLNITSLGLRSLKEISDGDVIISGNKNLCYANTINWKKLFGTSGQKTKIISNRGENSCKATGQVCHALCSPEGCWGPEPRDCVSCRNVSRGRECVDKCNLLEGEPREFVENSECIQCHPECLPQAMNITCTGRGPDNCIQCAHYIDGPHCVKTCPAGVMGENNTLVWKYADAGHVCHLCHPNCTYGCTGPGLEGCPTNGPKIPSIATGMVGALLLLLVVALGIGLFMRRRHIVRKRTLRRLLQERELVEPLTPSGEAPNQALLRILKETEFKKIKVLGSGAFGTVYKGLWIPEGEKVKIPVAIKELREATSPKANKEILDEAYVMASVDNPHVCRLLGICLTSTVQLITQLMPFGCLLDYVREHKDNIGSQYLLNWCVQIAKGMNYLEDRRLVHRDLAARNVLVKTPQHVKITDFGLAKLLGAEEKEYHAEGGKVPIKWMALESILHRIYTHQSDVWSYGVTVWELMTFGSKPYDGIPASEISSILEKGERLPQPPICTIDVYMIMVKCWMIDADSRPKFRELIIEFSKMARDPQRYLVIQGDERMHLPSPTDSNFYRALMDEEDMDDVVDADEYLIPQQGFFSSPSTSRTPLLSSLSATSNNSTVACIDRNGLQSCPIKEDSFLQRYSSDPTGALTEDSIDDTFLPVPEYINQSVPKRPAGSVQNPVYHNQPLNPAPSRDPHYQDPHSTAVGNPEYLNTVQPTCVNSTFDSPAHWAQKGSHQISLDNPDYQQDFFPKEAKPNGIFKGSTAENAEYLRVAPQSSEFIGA

GI50 [1] | SMILES | also measured
– | CCP(=O)(CC)c1ccc2c(c1)N1C[C@H](C)CCCOc3c(cnn3C)-c3cc(cc(C)n3)C(=O)/N=C/1N2 [WX-004 (trifluoroacetate)] | IC50 (EGFR (L858R/T790M/C797S); ATP 100 μM): 1.75 nM
3.3 nM | Cc1cc2cc(n1)-c1cnn(C)c1OCCC[C@@H](C)CN1/C(=N/C2=O)Nc2ccc(N=S3(=O)CCC4(CCOCC4)CC3)cc21 [WX-028] | –
5.5 nM | Cc1cc2cc(n1)-c1cnn(C)c1OCCC[C@@H](C)CN1/C(=N/C2=O)Nc2ccc(N=S3(=O)CCC4(CC3)COC4)cc21 [WX-029] | –
13 nM | Cc1cc2cc(n1)-c1cnn(C)c1OCCC[C@@H](C)CN1/C(=N/C2=O)Nc2ccc(N=S3(=O)CCN(C4COC4)CC3)cc21 [WX-030] | –
7.2 nM | Cc1cc2cc(n1)-c1cnn(C)c1OCCC[C@@H](C)CN1/C(=N/C2=O)Nc2ccc(P(=O)(C(C)C)C(C)C)cc21 [WX-005 (trifluoroacetate)] | IC50 (EGFR (L858R/T790M/C797S); ATP 100 μM): 1.63 nM
2.3 nM | Cc1cc2cc(n1)-c1cnn(C)c1OCCC[C@@H](C)CN1/C(=N/C2=O)Nc2ccc(N=S(C)(C)=O)cc21 [WX-006 (trifluoroacetate)] | IC50 (EGFR (L858R/T790M/C797S); ATP 100 μM): 0.831 nM
– | CCS(=O)(=O)c1ccc2c(c1)N1C[C@H](C)CCCOc3c(cnn3C)-c3cc(cc(C)n3)C(=O)/N=C/1N2 [WX-002 (formate)] | IC50 (EGFR (L858R/T790M/C797S); ATP 10 μM): 0.468 nM
11.6 nM | Cc1cc2cc(n1)-c1cnn(C)c1OCCC[C@@H](C)CN1/C(=N/C2=O)Nc2ccc(N=S3(=O)CCC(N4CCN(C)CC4)CC3)cc21 (some centres unmarked) [WX-026] | –
2.1 nM | Cc1cc2cc(n1)-c1cnn(C)c1OCCC[C@@H](C)CN1/C(=N/C2=O)Nc2ccc(N=S3(=O)CCC4(CC3)CN(C)C4)cc21 [WX-031] | –
4.4 nM | Cc1cc2cc(n1)-c1cnn(C)c1OCCC[C@@H](C)CN1/C(=N/C2=O)Nc2ccc(N=S3(=O)CCCCC3)cc21 [WX-011] | –
1.4 nM | Cc1cc2cc(n1)-c1cnn(C)c1OCCC[C@@H](C)CN1/C(=N/C2=O)Nc2ccc(N=S3(=O)CC4CN(C)CC4C3)cc21 (some centres unmarked) [WX-024] | –
10.6 nM | Cc1cc2cc(n1)-c1cnn(C)c1OCCC[C@@H](C)CN1/C(=N/C2=O)Nc2ccc(N=S3(=O)CCN(C)CC3)cc21 [WX-015] | –
12.7 nM | Cc1cc2cc(n1)-c1cnn(C)c1OCCC[C@@H](C)CN1/C(=N/C2=O)Nc2ccc(N=S3(=O)CCN(C4CCN(C)CC4)CC3)cc21 [WX-022] | –
14.3 nM | Cc1cc2cc(n1)-c1cnn(C)c1OCCC[C@@H](C)CN1/C(=N/C2=O)Nc2ccc(N=S3(=O)CCNCC3)cc21 [WX-014] | GI50 (Ba/F3-FL-EGFR (L858R)): 53.9 nM; GI50 (Ba/F3-FL-EGFR (WT)): 421 nM; GI50 [2]: 2.9 nM; GI50 [3]: 38.1 nM
5.7 nM | Cc1cc2cc(n1)-c1cnn(C)c1OCCC[C@@H](C)CN1/C(=N/C2=O)Nc2ccc(N=S3(=O)CC4(COC4)C3)cc21 [WX-025] | –
7.3 nM | CCS(=O)(CC)=Nc1ccc2c(c1)N1C[C@H](C)CCCOc3c(cnn3C)-c3cc(cc(C)n3)C(=O)/N=C/1N2 [WX-012 (hydrochloride)] | –
– | Cc1cc2cc(n1)-c1cnn(C)c1OCCC[C@@H](C)Cn1c(nc3ccc(CN4CCN(C)CC4)cc31)NC2=O [BI-4020] | Anti-tumor efficacy [4]: good anti-tumor efficacy
– | Cc1cc2cc(n1)-c1cnn(C)c1OCCC[C@@H](C)CN1/C(=N/C2=O)Nc2ccc(P(C)(C)=O)cc21 [WX-001 (trifluoroacetate)] | IC50 (EGFR (L858R/T790M/C797S); ATP 10 μM): 0.159 nM; IC50 (EGFR (L858R/T790M/C797S); ATP 100 μM): 1.17 nM
2.7 nM | Cc1cc2cc(n1)-c1cnn(C)c1OCCC[C@@H](C)CN1/C(=N/C2=O)Nc2ccc(N=S3(=O)CCC4(CCN(C)CC4)CC3)cc21 [WX-023] | –

Reference: patent US20250084097A1, “MACROCYCLIC AMIDE COMPOUNDS AND APPLICATION THEREOF” (Medshine Discovery Inc., priority 2021, published 2025)
